The record followed here is the METLIN SMRT retention time set (Domingo-Almenara et al. 2019).

The nature of this data set: gradient 5% acetonitrile 3 min, to 50% in 2 min, to 85% in 15 min, held 3 min, 100 µL/min. As to conditions: column: Zorbax Extend-C18 2.1 x 50 mm; eluents: water / acetonitrile, 0.1% formic acid. The procedure, abridged:
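Using water and acetonitrile that each contained 0.1% formic acid, mixtures of ~100 pure standards were separated at 100 μL/min on a Zorbax Extend-C18 column (2.1 × 50 mm, 1.8 μm). The HPLC fed a quadrupole time-of-flight mass spectrometer working in positive and negative ionization mode, with dead and dwell volumes of 40 μL and 900 μL. Data were acquired over 3 months. Retention time was read from computationally picked adduct peaks after manual inspection of each.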
The compound `CCc1nnc2nc(N3CCN(C(=O)Cc4cc(OC)cc(OC)c4)CC3)cc(C)n12` registered an RP-LC retention time of 623 s. In the case of `Cn1cc(-c2ccncc2)cc1C(=O)NCc1cccc(F)c1` it was 630 s. `CCC(=O)N1CCc2cc(N3CC(C(=O)Nc4ccc(C)cc4C)CC3=O)ccc21` (stereo not drawn) displayed an RP-LC retention time of 742 s. In the case of `O=C(NC1CC1)c1ccc(OCC2CCN(C(=O)c3ccc(Cl)cc3)CC2)cc1` it was 850 s; in that of `O=C(CCC1CCCCC1)NC1CCN(c2ccc(=O)n(CC3CC3)n2)CC1`, 924 s.

Consider `CC(=O)Nc1ccc(-c2nnc3n2CCCC3)cc1`, for which the RP-LC retention time came to 563 s.

The compound `COc1ccc(S(=O)(=O)N2CCC(n3c(-c4ccoc4)nc4cccnc43)C2)cc1` (stereo not drawn) returned an RP-LC retention time of 831 s.

In turn, `Cn1nc(-c2nc(-c3ccccc3F)no2)c2c1CCN(C(=O)C1CCCO1)C2` (stereo not drawn) yielded an RP-LC retention time of 770 s.

The compound `CCCn1ccc2oc(C)c(C(=O)N3CCN(C4CCCCC4)CC3)c2c1=O` yielded an RP-LC retention time of 612 s. With `Cc1ccc(NC(=O)N2CCc3[nH]cnc3C2c2ccncc2)cc1Cl` (stereo not drawn) the figure was 585 s. The compound `COc1ccc2[nH]cc(CCNC(=O)c3cccc(NC(=O)c4nnc(CC(C)C)s4)c3)c2c1` came in with an RP-LC retention time of 938 s. With `COc1ccccc1CCC(=O)N1CCc2cc(-c3ccno3)ccc21` the figure was 1040 s.

`O=C(NCC1CCCO1)c1cn(-c2ccc(S(=O)(=O)N3CCCC3)cn2)cn1` (stereo not drawn) registered an RP-LC retention time of 705 s.

Regarding `Cc1ccc(NC(=O)C2CCN(S(=O)(=O)c3ccc4c(c3)NC(=O)C(C)O4)CC2)cc1F` (stereo not drawn), the RP-LC retention time came out at 910 s.

Consider `CN1C[C@@H]2c3ccccc3Oc3ccc(Cl)cc3[C@H]2C1`, for which the RP-LC retention time worked out at 758 s.

The compound `Cc1ccc(NC(=O)Cn2c(N3CCc4ccccc4C3)nc(C)cc2=O)cc1` returned an RP-LC retention time of 810 s. With `Cc1cc(C(=O)N2CCC3(CCC3O)CC2)c(C)o1` (stereo not drawn) the figure was 683 s; with `FC(F)(F)c1nnc2c(Sc3ccccc3)nc3ccc(Cl)cc3n12`, 1190 s; with `CCCN1C(=O)COc2ccc(-c3noc(-c4ccc(C#N)cc4)n3)cc21`, 1130 s. In turn, `Cc1ccc(-n2cc(C(=O)NCc3ccccc3Cl)nn2)cc1` had an RP-LC retention time of 921 s. For the compound `CCc1ccccc1S(=O)(=O)N1C[C@@H]2C(=O)N(C(CC)c3cccs3)C(=O)[C@@H]2C1` (stereo partly drawn), the RP-LC retention time was determined as 1070 s. In the case of `Clc1cc(Cl)cc(-c2ccc(CNCc3ccco3)o2)c1` it was 784 s; in that of `Cn1cnc(S(=O)(=O)N2CCC(c3noc(-c4cccnc4)n3)C2)c1` (stereo not drawn), 627 s. For `COc1cccc(-c2nc(Cn3cnc4nc5c(cc4c3=O)CC(C)CC5)c(C)o2)c1OC` (stereo not drawn), the RP-LC retention time worked out at 941 s.

In turn, `Cc1cc(F)ccc1NC(=O)c1sc(-c2cn(C)c3ncccc23)nc1C` showed an RP-LC retention time of 899 s.

In turn, `CC(=O)N1c2ccc(S(=O)(=O)N3CCCCC3)cc2CC1C(=O)Nc1ccc(C)cc1C` (stereo not drawn) came in with an RP-LC retention time of 868 s.

Turning to `N[C@@H]1CCCN(c2c(/C=C3\SC(=O)NC3=O)cccc2-c2ccccc2)C1`, the RP-LC retention time is 772 s. With `O=C(NCc1ccc(Cl)cc1)C1CC(=O)N(CCc2c[nH]c3ccc(F)cc23)C1` (stereo not drawn) the figure was 802 s. In the case of `CSc1nc(N2CCCC2)c2cnn(CCNC(=O)CSc3ccc(F)cc3)c2n1` it was 829 s; in that of `Cc1cc(NC(=O)C2CCN(C(=O)C3(c4cccs4)CCCC3)CC2)no1`, 800 s; in that of `O=C(Cc1nnc(-c2cnccn2)o1)Nc1ccccc1Cl`, 681 s.

`Cc1ccc(CNC(=O)c2ccc3c(c2)CNCCO3)cc1` registered an RP-LC retention time of 617 s. In the case of `COc1ccc(S(=O)(=O)CC(=O)Nc2nnc(-c3cc(C)oc3C)o2)cc1` it was 721 s. With `COc1ccccc1N1CCN(c2nc3ccc(C)cc3cc2-c2noc(C)n2)CC1` the figure was 732 s; with `O=C(NCCc1ccccc1)NCc1cccn1Cc1ccc(F)cc1`, 965 s. With `Cc1ccccc1NC(=O)Cn1nc2cc(-c3ccccn3)nc(C)n2c1=O` the figure was 746 s; with `CCc1noc(NC(C)=O)c1-c1ccc(C)c(S(=O)(=O)Nc2cc(C)ccc2C)c1`, 900 s; with `O=C(Cc1ccc(F)cc1)N1CCCC1c1nc(-c2ccc(F)cc2)no1` (stereo not drawn), 1010 s. `CCNC(=O)N(CC(=O)N1CCc2sccc2C1COc1ccc(F)cc1)CC1CCCO1` (stereo not drawn) gave an RP-LC retention time of 856 s. Turning to `CCOc1cc(C(=O)Nc2ccc(F)cc2F)nc2c(F)cccc12`, the RP-LC retention time was 1350 s. With `CCC(C(=O)NCCN1CCN(C)CC1)n1nc(C)c2sc3ccccc3c2c1=O` (stereo not drawn) the figure was 629 s. With `CC1(C)CC(=O)C2=C(C1)N(Cc1cccnc1)C(=O)C2(NC(=O)C1CCCCC1)C(F)(F)F` (stereo not drawn) the figure was 659 s; with `CC(NC(=O)C1CCCN(C(=O)c2cc3sccc3n2C)C1)c1ccccc1` (stereo not drawn), 628 s. In the case of `CC1=C(c2ccc(Cl)cc2)S(=O)(=O)N=C1N1CCCN(C(=O)C2CCCO2)CC1` (stereo not drawn) it was 758 s. For `CCc1nnc2c(=O)n(CC(=O)NC(C)c3ccccc3)c3cccnc3n12` (stereo not drawn), the RP-LC retention time came to 714 s.

Regarding `CN(C)c1nc2ncn3c(=O)n(CC(=O)NC4CCc5ccccc54)nc3c2s1` (stereo not drawn), the RP-LC retention time came out at 864 s. Compound `CC(C)OCCCNC(=O)C1CCN(S(C)(=O)=O)c2cc(Cl)ccc2O1` (stereo not drawn) showed an RP-LC retention time of 838 s. In the case of `COC(=O)CNC(=O)N1CCCC1c1cccc(C)c1` (stereo not drawn) it was 734 s; in that of `CCc1nc2cc(-c3noc(-c4cc(F)ccc4Cl)n3)ccc2o1`, 1270 s. Regarding `CCn1cc(S(=O)(=O)N2CC(Cn3c(C)cnc3-c3ccncc3)C2)cn1`, the RP-LC retention time worked out at 574 s.

As to `Cc1ccc(C2CN(S(=O)(=O)c3ccccc3)CCN2C)cc1` (stereo not drawn), the RP-LC retention time was determined as 603 s. With `O=C(CSCc1ccccc1)NCCNC(=O)c1ccc(NC(=O)C2CC2)cc1` the figure was 683 s. With `COc1ccc(-n2c(=O)c(C(=O)Nc3ccccc3Cl)c(O)c3cccnc32)cc1` the figure was 1270 s; with `COc1ccccc1CNC(=O)C1=C2CCCN2c2ccccc2S1(=O)=O`, 843 s. With `Cc1nn(-c2ccc(N3CCOCC3)nn2)c(C)c1CCC(=O)N1CCN(c2ccccn2)CC1`, the RP-LC retention time is 578 s.

The compound `COc1ccc(C(=O)Nc2nc(-c3ccccc3)cs2)cc1OC` returned an RP-LC retention time of 961 s.

Take `Cc1ccc(C2Cn3nc(-c4nc(-c5ccccc5)no4)cc3CO2)cc1` (stereo not drawn): the RP-LC retention time turned out to be 1260 s. Compound `Cc1[nH]c(C)c(S(=O)(=O)N2CCC(C(=O)NC(C)(C)C)CC2)c1C(=O)N1CCCCC1` had an RP-LC retention time of 710 s.

`Cc1oc(C2CCN(S(=O)(=O)c3cc(F)ccc3F)CC2)nc1C(=O)N1CCCC1` yielded an RP-LC retention time of 926 s. `CCC(=O)N1CCCCCCN(C)C(=O)[C@@H]2CCC[C@@H]21` registered an RP-LC retention time of 726 s. In the case of `Cc1ccc(-c2csc(NC(=O)CCCc3nc(-c4ccc(Cl)cc4)no3)n2)cc1` it was 1240 s; in that of `O=C(NC1CC1)[C@@H]1C[C@H](Oc2cccnc2)CN1C(=O)C1CC=CC1`, 567 s; in that of `C/C(=C\c1csc(C)n1)C1C[C@@H]2O[C@]2(C)CCC[C@H](C)[C@H](O)[C@@H](C)C(=O)C(C)(C)[C@@H](O)CC(=O)N1` (stereo partly drawn), 668 s. In the case of `COC(CNC(=O)C1CCN(C(=O)c2ncn3c2COC(c2ccc(F)cc2)C3)CC1)OC` (stereo not drawn) it was 674 s; in that of `CN1CCN(c2nc3cc(C(F)(F)F)ccc3n3cccc23)CC1`, 768 s; in that of `O=C(NC1CCCc2c1[nH]c1ccc(Cl)cc21)c1ccncc1` (stereo not drawn), 859 s. In the case of `Cc1ccc(-n2c(N3CCCC(C(=O)Nc4ccc(C)c(F)c4)C3)nc3ccsc3c2=O)cc1` (stereo not drawn) it was 1070 s; in that of `COc1ccc(CNC(=O)c2cc3sc(Cl)cc3n2C)cc1`, 1030 s. For `Cc1ccc(C(=O)Nc2ccc(N3CCN(C4CCCC4)C3=O)nc2)cc1F`, the RP-LC retention time was 918 s. On to `CN1CCN(CCSC2Cc3cc(Cl)ccc3Sc3ccccc32)CC1` (stereo not drawn), for which the RP-LC retention time was 761 s. `Cc1ccc2nc3sc(C(=O)Nc4c(C)n(C)n(-c5ccccc5)c4=O)cc3c(=O)n2c1` came in with an RP-LC retention time of 635 s. `COc1cccc(C2Cn3nnc(-c4nc(-c5ccc(SC)cc5)no4)c3CO2)c1` (stereo not drawn) showed an RP-LC retention time of 1200 s.

Consider `CC(C)c1ccc(-c2nc(-c3ccc4c(c3)oc(=O)n4C)no2)cc1`, for which the RP-LC retention time stood at 1250 s. In turn, `Cc1ccc(NC(=O)C2CCCN2S(=O)(=O)c2cc3c(cc2C)NC(=O)CO3)c(C)c1` (stereo not drawn) displayed an RP-LC retention time of 817 s. In the case of `Cc1nc2cccnc2n1CC1CCCN(S(=O)(=O)c2ccc3c(c2)CCC3)C1` (stereo not drawn), the RP-LC retention time worked out at 765 s. With `O=C(CCC1CCCC1)NCCC1CCN(C(=O)Nc2cc(F)cc(F)c2)CC1` the figure was 971 s; with `CC1CCN(CCCNC(=O)C2CCN(S(=O)(=O)c3ccc4c(c3)sc(=O)n4C)CC2)CC1`, 1060 s. In the case of `COC(=O)c1nc(NC(=O)Cn2nc3c(cc2=O)CCCCC3)sc1C` it was 778 s.
